In test [1] the test system is HeLa. As to the kind of experiment: Geno-toxicity in human HeLa cells assessed as induction of DNA damage after 1 hr by alkaline comet assay. It counts as functional, cell-based.
Test [2] has as its system HeLa. The test is described as follows: Geno-toxicity in human HeLa cells assessed as induction of DNA damage by measuring double stranded DNA breaks at 0.02 to 0.5 mM after 1 hr by neutral comet assay. In kind it is functional, cell-based.
Test [3] has as its system HeLa. As to the kind of experiment: Geno-toxicity in human HeLa cells assessed as induction of DNA damage at pH 12.1 after 1 hr by comet assay. In kind it is functional, cell-based.
The test system of test [4] is HeLa. The test is described as follows: Induction of DNA damage in human HeLa cells assessed as increase in oxidative DNA lesions by measuring oxidized purines at 0.1 mM preincubated for 1 hr followed by formamidopyrimidine DNA glycosylase addition measured after 30 mins by alkaline comet assay. It counts as functional, cell-based.
In test [5] the test system is HeLa. As to the kind of experiment: Induction of DNA damage in human HeLa cells assessed as increase in oxidative DNA lesions by measuring oxidized purines at 0.1 mM preincubated for 1 hr followed by human 8-oxoguanine DNA N-glycosylase1 addition measured after 30 mins by alkaline comet assay. It counts as functional, cell-based.
Test [6] relates to HeLa. The test is described as follows: Induction of DNA damage in human HeLa cells assessed as increase in oxidative DNA lesions by measuring oxidized pyrimidines at 0.1 mM preincubated for 1 hr followed by endonuclease3 addition measured after 30 mins by alkaline comet assay. In kind it is functional, cell-based.
Test [7] concerns HeLa. As to the kind of experiment: Induction of DNA damage in human HeLa cells at 0.1 mM in presence of antioxidant vitamin E after 1 hr by alkaline comet assay. In kind it is functional, cell-based.
Test [8] relates to HeLa. The test is described as follows: Induction of DNA damage in human HeLa cells at 0.1 mM in presence of antioxidant epikatehin after 1 hr by alkaline comet assay. In kind it is functional, cell-based.
The subject of test [9] is Escherichia coli DH5[alpha]. The test is described as follows: Induction of DNA damage in Escherichia coli DH5alpha supercoiled pUC19 DNA assessed as increase in linear DNA forms at 0.1 to 1 mM by ethidium bromide staining based agarose gel electrophoresis.
In test [10] the test system is Escherichia coli DH5[alpha]. As to the kind of experiment: Induction of DNA damage in Escherichia coli DH5alpha supercoiled pUC19 DNA assessed as increase in open circular forms at 0.1 to 1 mM by ethidium bromide staining based agarose gel electrophoresis.
Test [11] relates to Escherichia coli DH5[alpha]. The test is described as follows: Induction of DNA damage in Escherichia coli DH5alpha supercoiled pUC19 DNA assessed as decrease in covalently closed circular DNA forms at 0.1 to 1 mM by ethidium bromide staining based agarose gel electrophoresis.
The subject of test [12] is HeLa. As to the kind of experiment: Induction of oxidative DNA damage in human HeLa cells at 0.05 to 0.5 mM in presence of PBN spin trap after 1 hr by alkaline comet assay. In kind it is functional, cell-based.
The test system of test [13] is HeLa. The test is described as follows: Induction of ROS production in human HeLa cells at 0.1 mM after 24 hrs by H2DCFDA probe based fluorescence assay. In kind it is functional, cell-based.
The test system of test [14] is HeLa. The test is described as follows: Induction of apoptosis in human HeLa cells at 0.5 mM after 4 hrs by Annexin-V-FITC/PI staining based flow cytometry. In kind it is functional, cell-based. (In general: A flow cytometer gives signals particle by particle.)
Test [15] deals with HeLa. As to the kind of experiment: Induction of mitochondrial membrane depolarization in human HeLa cells at 0.5 mM by JC-1 staining based flow cytometry. In kind it is functional, cell-based.
Test [16] deals with HeLa. The test is described as follows: Upregulation of NOX5 mRNA expression in human HeLa cells at 0.5 mM after 1 hr by qRT-PCR method. It counts as functional, cell-based.
In test [17] the test system is HeLa. The test is described as follows: Down regulation of NCOA7 mRNA expression in human HeLa cells at 0.5 mM after 1 hr by qRT-PCR method. It counts as functional, cell-based.
Test [18] concerns HeLa. As to the kind of experiment: Upregulation of FHL2 mRNA expression in human HeLa cells at 0.5 mM after 1 hr by qRT-PCR method. In kind it is functional, cell-based. A general note: Quantitative PCR measures a nucleic acid by following its amplification.
The test system of test [19] is HeLa. As to the kind of experiment: Cytotoxicity against human HeLa cells assessed as decrease in cell viability at 0.6 mM in presence of 5 mM glucose after 14 hrs by WST-8 based CCK-8 assay. In kind it is functional. (In general: Tetrazolium dyes change colour on reduction, which living cells bring about.)
The subject of test [20] is HeLa. The test is described as follows: Geno-toxicity in human HeLa cells assessed as induction of DNA damage at 0.6 mM in presence of 5 mM glucose after 1 hr by alkaline comet assay. It counts as functional, cell-based.
In test [21] the test system is HeLa. The test is described as follows: Geno-toxicity in human HeLa cells assessed as induction of DNA damage at 0.1 mM by alkaline comet assay. It counts as functional, cell-based. The conditions noted are these: TDE = time-dependent effect.
For test [22], the system named is HeLa. The test is described as follows: Geno-toxicity in human HeLa cells assessed as induction of DNA damage at 0.1 mM at 4 degC by alkaline comet assay. In kind it is functional, cell-based.
Test [23] has as its system HeLa. The test is described as follows: Geno-toxicity in human HeLa cells assessed as induction of DNA damage at 0.1 mM at 37 degC by alkaline comet assay. In kind it is functional, cell-based.
Test [24] deals with HeLa. The test is described as follows: Induction of oxidative DNA damage in human HeLa cells at 0.19 to 0.76 mM in presence of PBN spin trap after 1 hr by alkaline comet assay. In kind it is functional, cell-based.
For test [25], the system named is HeLa. The test is described as follows: Induction of ROS production in human HeLa cells at 0.2 mM after 24 hrs by H2DCFDA probe based fluorescence assay. It counts as functional, cell-based.
The test system of test [26] is HeLa. As to the kind of experiment: Cytotoxicity against human HeLa cells assessed as decrease in cell viability at 0.5 mM in presence of 5 mM glucose after 14 hrs by WST-8 based CCK-8 assay. It counts as functional.
The test system of test [27] is HeLa. As to the kind of experiment: Geno-toxicity in human HeLa cells assessed as induction of DNA damage at 0.5 mM in presence of 5 mM glucose after 1 hr by alkaline comet assay. In kind it is functional, cell-based.
Test [28] deals with HeLa. As to the kind of experiment: Geno-toxicity in human HeLa cells assessed as induction of DNA damage at 0.2 mM by alkaline comet assay. To be noted: TDE = time-dependent effect. In kind it is functional, cell-based.
Test [29] has as its system HeLa. The test is described as follows: Geno-toxicity in human HeLa cells assessed as induction of DNA damage by measuring double stranded DNA breaks at 0.19 to 0.76 mM after 1 hr by neutral comet assay. It counts as functional, cell-based.
In test [30] the test system is HeLa. As to the kind of experiment: Geno-toxicity in human HeLa cells assessed as induction of DNA damage at 0.2 mM at 4 degC by alkaline comet assay. It counts as functional, cell-based.
Test [31] concerns HeLa. The test is described as follows: Geno-toxicity in human HeLa cells assessed as induction of DNA damage at 0.2 mM at 37 degC by alkaline comet assay. In kind it is functional, cell-based.

Molecules are shown by their SMILES. Active and inactive are the calls of the source. No cut-off for these calls is given here.

Take `OC[C@H]1SC(O)[C@H](O)[C@@H](O)[C@@H]1O` (stereo partly specified): the Activity result was “Dose-dependent effect” with HeLa [1], “Dose-dependent effect” in the test on HeLa [3] and “Tde” in the test with HeLa [21]. Besides, the result (in the test with HeLa [2]; with HeLa [7]; with HeLa [8]; in test [9]; in test [10]; in [11]) was inactive. The result in the test with HeLa [12], in the test on HeLa [14], in the test on HeLa [15] and with HeLa [23] was inactive. In addition, the result in the test with HeLa [4], with HeLa [5], with HeLa [6], in the test with HeLa [13], with HeLa [16] and in the test with HeLa [17] was Active. For the same compound, the result in the test on HeLa [18], in the test with HeLa [19], with HeLa [20] and with HeLa [22] was Active.

For `OC[C@@]1(O)SC[C@@H](O)[C@@H](O)[C@@H]1O`, the Activity result in the test with HeLa [1] was “Dose-dependent effect”; with HeLa [3] it was “Dose-dependent effect”; with HeLa [28] it was “Tde”. The outcome in the test on HeLa [4], in the test on HeLa [5], with HeLa [6], in the test on HeLa [25], in the test with HeLa [16] and with HeLa [17] was Active. Further, the result with HeLa [18], with HeLa [26], with HeLa [27] and in the test with HeLa [30] was Active. For the same compound, the result (in the test on HeLa [7]; in the test on HeLa [8]; in test [9]; in test [10]; in test [11]; in the test with HeLa [24]) was inactive. In addition, the outcome in the test on HeLa [14], in the test with HeLa [15], with HeLa [29] and in the test on HeLa [31] was inactive.

Source of the values: ChEMBL document CHEMBL3997790, “The oxidative induction of DNA lesions in cancer cells by 5-thio-d-glucose and 6-thio-d-fructopyranose and their genotoxic effects. Part 3” (Bioorg Med Chem Lett, 2017).
